Experimental data as given in ChEMBL document CHEMBL4130502, “Discovery of thienopyrrolotriazine derivatives to protect mitochondrial function against Aβ-induced neurotoxicity” (Eur J Med Chem, 2017).

Tests used:
[1] = target: Translocator protein (Mus musculus) (UniProt P50637); test: Inhibition of TSPO in mouse HT22 cells assessed as reduction in amyloid beta (1 to 42) (unknown origin) induced mitochondrial permeability transition pore formation by measuring increase in green to red fluorescence ratio at 5 uM pretreated for 10 mins followed by amyloid beta (1 to 42) stimulation and measured at 1 hr interval for 3 hrs by JC-1 dye based fluorescence assay relative to control; type: cell-based; set-up: scale not given: the % may be the effect or the level left
Translocator protein (Mus musculus), sequence (P50637 whole entry, looked up): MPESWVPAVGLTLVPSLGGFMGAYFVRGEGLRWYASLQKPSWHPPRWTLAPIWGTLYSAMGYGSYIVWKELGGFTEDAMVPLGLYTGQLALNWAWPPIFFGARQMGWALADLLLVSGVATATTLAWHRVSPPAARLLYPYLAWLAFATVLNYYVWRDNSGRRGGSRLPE

[2] = target: Translocator protein (Mus musculus) (UniProt P50637); test: Inhibition of TSPO in mouse HT22 cells assessed as recovery of ATP production at 5 uM preincubated for 10 mins followed by amyloid beta (1 to 42) stimulation and measured after 7 hrs by luciferase based assay relative to control; type: cell-based; set-up: scale not given: the % may be the effect or the level left
[3] = Cytotoxicity against mouse HT22 cells as cell viability at 5 uM after 24 hrs by MTT assay relative to control; type: cell-based, HT-22; conditions: read-out: Activity
CYP1A2 = target: T1, CYP1A2 (Homo sapiens, UniProt P05177); test: Inhibition of human CYP1A2 assessed as remaining enzyme activity at 10 uM preincubated for 5 mins followed by Vivid CYP substrate addition measured after 20 mins by fluorescence assay relative to control; type: ADME; conditions: probe Vivid CYP substrate, read-out: Activity
T1 sequence (P05177 whole entry): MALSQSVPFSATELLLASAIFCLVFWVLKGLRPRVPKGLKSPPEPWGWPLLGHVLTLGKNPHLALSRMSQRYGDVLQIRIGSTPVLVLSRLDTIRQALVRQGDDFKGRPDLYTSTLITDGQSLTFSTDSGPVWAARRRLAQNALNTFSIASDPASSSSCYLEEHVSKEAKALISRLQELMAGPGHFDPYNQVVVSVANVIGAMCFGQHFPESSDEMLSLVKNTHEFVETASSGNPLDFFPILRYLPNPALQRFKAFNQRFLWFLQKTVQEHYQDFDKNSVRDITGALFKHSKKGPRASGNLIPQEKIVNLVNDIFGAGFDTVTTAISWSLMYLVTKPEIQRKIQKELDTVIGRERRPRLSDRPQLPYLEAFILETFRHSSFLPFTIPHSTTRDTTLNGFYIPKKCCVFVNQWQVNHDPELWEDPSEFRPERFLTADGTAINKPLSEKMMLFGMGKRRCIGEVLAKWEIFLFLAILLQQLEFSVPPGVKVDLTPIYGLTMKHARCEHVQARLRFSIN

Translocator protein [4] = target: Translocator protein (Rattus norvegicus, UniProt P16257); test: Displacement of [3H]PK11195 from TSPO in Sprague-Dawley rat cerebral cortex membranes after 60 mins by liquid scintillation counting analysis; set-up: species or system Membrane
Translocator protein (Rattus norvegicus, UniProt P16257), sequence (P16257 whole entry, looked up): as the sequence (P50637 whole entry, looked up) above, with P2S, E3Q, V67I, D77E, A110V, L113M, V149M, P168T counted along it

Translocator protein [5] = target: Translocator protein (Homo sapiens, UniProt P30536); test: Binding affinity to C-terminal DDK-tagged human recombinant full-length TSPO expressed in HEK293 cells by SPR assay
Translocator protein (Homo sapiens, UniProt P30536), sequence (P30536 whole entry): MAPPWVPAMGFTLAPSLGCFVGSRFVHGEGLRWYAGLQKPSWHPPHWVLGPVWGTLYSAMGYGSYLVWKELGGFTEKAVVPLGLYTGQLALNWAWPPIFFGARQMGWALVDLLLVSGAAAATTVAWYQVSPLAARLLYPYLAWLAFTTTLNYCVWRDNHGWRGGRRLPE

CYP2D6 = CYP2D6 (Homo sapiens, UniProt P10635); test: Inhibition of human CYP2D6 assessed as remaining enzyme activity at 10 uM preincubated for 5 mins followed by Vivid CYP substrate addition measured after 20 mins by fluorescence assay relative to control; type: ADME; conditions: probe Vivid CYP substrate, read-out: Activity
CYP2D6, sequence (P10635 whole entry): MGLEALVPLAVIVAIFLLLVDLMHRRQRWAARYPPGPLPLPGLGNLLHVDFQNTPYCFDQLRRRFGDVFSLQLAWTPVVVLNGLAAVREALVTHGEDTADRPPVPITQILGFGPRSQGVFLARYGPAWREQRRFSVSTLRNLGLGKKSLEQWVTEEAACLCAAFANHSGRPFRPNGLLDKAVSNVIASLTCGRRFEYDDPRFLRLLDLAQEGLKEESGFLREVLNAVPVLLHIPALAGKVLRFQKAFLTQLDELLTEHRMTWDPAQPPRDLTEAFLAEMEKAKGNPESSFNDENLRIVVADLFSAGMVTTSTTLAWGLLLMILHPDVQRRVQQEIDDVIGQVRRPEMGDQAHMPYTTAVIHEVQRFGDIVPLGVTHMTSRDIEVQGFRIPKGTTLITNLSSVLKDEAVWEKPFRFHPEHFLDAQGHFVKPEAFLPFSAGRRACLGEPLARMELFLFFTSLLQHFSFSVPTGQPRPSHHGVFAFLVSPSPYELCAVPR

CYP2C9 = CYP2C9 (Homo sapiens, UniProt P11712); test: Inhibition of human CYP2C9 assessed as remaining enzyme activity at 10 uM preincubated for 5 mins followed by Vivid CYP substrate addition measured after 20 mins by fluorescence assay relative to control; type: ADME; conditions: probe Vivid CYP substrate, read-out: Activity
CYP2C9, sequence (P11712 whole entry): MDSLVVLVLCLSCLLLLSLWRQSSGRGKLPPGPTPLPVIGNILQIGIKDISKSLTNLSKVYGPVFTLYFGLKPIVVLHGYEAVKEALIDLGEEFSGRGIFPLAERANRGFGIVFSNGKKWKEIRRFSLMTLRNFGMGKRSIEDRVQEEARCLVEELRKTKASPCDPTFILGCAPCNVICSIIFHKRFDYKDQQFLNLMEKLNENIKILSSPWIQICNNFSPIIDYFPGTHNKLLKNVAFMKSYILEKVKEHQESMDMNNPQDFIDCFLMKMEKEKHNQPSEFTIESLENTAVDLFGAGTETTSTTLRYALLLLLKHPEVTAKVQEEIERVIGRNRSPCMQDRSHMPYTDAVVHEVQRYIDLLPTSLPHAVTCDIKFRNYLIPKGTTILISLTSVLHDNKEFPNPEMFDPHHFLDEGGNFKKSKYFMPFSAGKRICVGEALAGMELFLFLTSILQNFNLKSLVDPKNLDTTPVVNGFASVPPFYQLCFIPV

CYP3A4 = CYP3A4 (Homo sapiens, UniProt P08684); test: Inhibition of human CYP3A4 assessed as remaining enzyme activity at 10 uM preincubated for 5 mins followed by Vivid CYP substrate addition measured after 20 mins by fluorescence assay relative to control; type: ADME; conditions: probe Vivid CYP substrate, read-out: Activity
CYP3A4, sequence (P08684 whole entry): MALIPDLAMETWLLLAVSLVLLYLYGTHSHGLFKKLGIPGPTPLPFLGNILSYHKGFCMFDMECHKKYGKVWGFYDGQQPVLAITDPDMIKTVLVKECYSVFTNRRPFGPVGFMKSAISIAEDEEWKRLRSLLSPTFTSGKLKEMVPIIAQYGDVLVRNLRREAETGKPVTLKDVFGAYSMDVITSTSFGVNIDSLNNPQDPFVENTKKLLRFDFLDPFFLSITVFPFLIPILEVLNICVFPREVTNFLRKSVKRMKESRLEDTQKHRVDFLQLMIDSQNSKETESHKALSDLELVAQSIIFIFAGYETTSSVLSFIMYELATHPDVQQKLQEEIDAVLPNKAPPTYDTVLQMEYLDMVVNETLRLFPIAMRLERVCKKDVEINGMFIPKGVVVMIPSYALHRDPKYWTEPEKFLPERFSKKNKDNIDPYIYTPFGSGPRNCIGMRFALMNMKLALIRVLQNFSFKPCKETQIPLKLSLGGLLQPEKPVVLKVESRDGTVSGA

CYP2C19 = CYP2C19 (Homo sapiens, UniProt P33261); test: Inhibition of human CYP2C19 assessed as remaining enzyme activity at 10 uM preincubated for 5 mins followed by Vivid CYP substrate addition measured after 20 mins by fluorescence assay relative to control; type: ADME; conditions: probe Vivid CYP substrate, read-out: Activity
CYP2C19, sequence (P33261 whole entry): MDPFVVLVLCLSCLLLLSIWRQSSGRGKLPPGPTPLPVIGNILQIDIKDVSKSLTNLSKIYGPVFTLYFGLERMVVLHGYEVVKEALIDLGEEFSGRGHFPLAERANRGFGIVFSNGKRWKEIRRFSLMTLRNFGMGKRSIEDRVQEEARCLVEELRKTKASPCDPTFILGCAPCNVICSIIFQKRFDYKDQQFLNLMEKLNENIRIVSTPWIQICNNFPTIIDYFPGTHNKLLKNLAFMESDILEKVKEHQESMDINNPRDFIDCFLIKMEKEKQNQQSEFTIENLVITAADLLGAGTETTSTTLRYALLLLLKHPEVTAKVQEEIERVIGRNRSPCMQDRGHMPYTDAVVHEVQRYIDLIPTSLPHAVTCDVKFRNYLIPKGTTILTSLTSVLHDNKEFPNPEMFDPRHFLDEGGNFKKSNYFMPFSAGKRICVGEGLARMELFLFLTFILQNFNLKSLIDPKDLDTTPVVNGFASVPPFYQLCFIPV

[6] = Stability in human liver microsomes assessed as parent compound remaining at 1 uM preincubated for 5 mins followed by NADPH addition measured after 30 mins by LC-MS/MS analysis; type: ADME, microsome; conditions: read-out: Stability
[7] = Stability in dog liver microsomes assessed as parent compound remaining at 1 uM preincubated for 5 mins followed by NADPH addition measured after 30 mins by LC-MS/MS analysis; type: ADME, Canis lupus familiaris, microsome; conditions: read-out: Stability
[8] = Stability in rat liver microsomes assessed as parent compound remaining at 1 uM preincubated for 5 mins followed by NADPH addition measured after 30 mins by LC-MS/MS analysis; type: ADME, microsome; conditions: read-out: Stability
[9] = Stability in mouse liver microsomes assessed as parent compound remaining at 1 uM preincubated for 5 mins followed by NADPH addition measured after 30 mins by LC-MS/MS analysis; type: ADME, microsome; conditions: read-out: Stability
[10] = Stability in human plasma assessed as parent compound remaining at 10 uM after 30 mins by LC-MS/MS analysis; type: ADME, cell-free; conditions: read-out: Stability
[11] = Stability in human plasma assessed as parent compound remaining at 10 uM after 120 mins by LC-MS/MS analysis; type: ADME, cell-free; conditions: read-out: Stability
[12] = Stability in rat plasma assessed as parent compound remaining at 10 uM after 30 mins by LC-MS/MS analysis; type: ADME, cell-free; conditions: read-out: Stability
[13] = Stability in rat plasma assessed as parent compound remaining at 10 uM after 120 mins by LC-MS/MS analysis; type: ADME, cell-free; conditions: read-out: Stability

Row | Activity [1] | Activity [2] | activity at 20 min, 10 µM (CYP1A2) | IC50 (Translocator protein [4]) | Kd (Translocator protein [5]) | activity at 20 min, 10 µM (CYP2D6) | activity at 20 min, 10 µM (CYP2C9) | activity at 20 min, 10 µM (CYP3A4) | activity at 20 min, 10 µM (CYP2C19) | remaining at 0.5 h, 1 µM [6] | remaining at 0.5 h, 1 µM [7] | remaining at 0.5 h, 1 µM [8] | remaining at 0.5 h, 1 µM [9] | remaining at 0.5 h, 10 µM [10] | remaining at 2 h, 10 µM [11] | remaining at 0.5 h, 10 µM [12] | remaining at 2 h, 10 µM [13] | Structure (SMILES) | viability at 24 h, 5 µM [3]
1 | 46% | 8% | 33.7% | 24.8 nM | 39.6 nM | 49.5% | 70.5% | 32.2% | 16.8% | 5% | 5.1% | 6.4% | 8.2% | > 100% | 96.8% | 94% | 72.4% | CCc1nnc(SCC(=O)N(C)c2ccccc2)c2cc3sccc3n12 | 97%
2 | 61% | 44% | 50.7% | 39.9 nM | 61.2 nM | 60.4% | 64.8% | 64.1% | 52.2% | 8.8% | 9.8% | 9% | 12.8% | 99.3% | 93.6% | 96.6% | 80.6% | CCc1nnc(SCC(=O)N(C)c2ccccc2)c2cc3sc(C)cc3n12 | 91%
3 | 61% | 22% | 49.2% | 1670 nM | – | 17% | 95.9% | 34.1% | 44.1% | – | – | – | – | – | – | – | – | CCc1nnc(SCC(=O)Nc2ccccc2)c2cc3sc(C)cc3n12 | 92%
4 | 56% | 25% | 46.8% | 55.1 nM | – | 48.8% | 124% | 41.3% | 28.8% | – | – | – | – | – | – | – | – | Cc1nnc(SCC(=O)N(C)c2ccccc2)c2cc3sccc3n12 | 99%
